{"source": "ChEMBL document CHEMBL1201862", "about": "“PubChem BioAssay data set” (2004)", "key": {"H9c2": {"tested_on": "H9c2", "assay": "cells", "type": "functional, cell-based", "details": "Rattus norvegicus, H9c2, Myocardium"}, "[1]": {"assay": "growth suppression of beta-catenin-knockout colon cells, dose response, cell-based, HCT116, human colon tumor (AID 1045);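 also: HCT116 colon tumor cells with beta catenin knocked out; cells exposed to compound for 60 hours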", "type": "functional"}, "[2]": {"assay": "growth suppression of PTEN-null colon cells, dose response, cell-based, HCT116 PTEN knockout (AID 1047);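 also: HCT116 colon tumor cells with PTEN knocked out; cells exposed to compound for 60 hours before readout; potency for loss of cell viability measured by luminescence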", "type": "functional"}, "cells [3]": {"assay": "cells", "type": "functional, cell-based"}, "cells [4]": {"assay": "cells", "type": "functional, cell-based", "remark": "listed apart in the source"}, "[5]": {"assay": "C. albicans growth with fluconazole, confirmation, fluorescence, retest (AID 2467)", "type": "functional, cell-based"}, "[6]": {"assay": "NIH-3T3 fibroblast cytotoxicity, dose response, cytotoxicity control, cell-based, fluorescence, Alamar Blue, secondary assay (AID 2327);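 also: NIH-3T3 mouse fibroblasts cultured with fluconazole at 8 µg/mL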", "type": "functional"}, "[7]": {"assay": "HEp-2 cell cytotoxicity, dose response, cytotoxicity control for RSV inhibitor project, HTS (AID 2410)", "type": "functional", "details": "human respiratory syncytial virus"}, "[8]": {"assay": "inhibitors of SNCA 5'UTR-driven reporter translation, confirmation, H4 neuroglioma cells, luminescence (AID 1988)", "type": "functional, cell-based"}, "[9]": {"assay": "Luminescence Cell-Based Dose Response HTS to Identify Inhibitors of 5'UTR Stem-Loop Driven Prion Protein mRNA Translation in H4 Neuroglioblastoma Cells. [Related pubchem assays: 1827 (Project Summary), 1813 (Primary HTS)]", "type": "functional"}, "[10]": {"assay": "inhibitors of firefly luciferase expression or activity, dose response, H4 neuroglioma cells, luminescence (AID 1990)", "type": "functional, cell-based"}, "[11]": {"assay": "inhibitors of intracellular T. cruzi replication, confirmation, NIH3T3 host cells, beta-gal luminescence (AID 2044);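 also: luminescent beta-galactosidase reporter signal from transgenic T. cruzi replicating inside host cells; inhibitors lower the luminescence signal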", "type": "functional, cell-based"}, "[12]": {"assay": "cytotoxicity toward NIH3T3 fibroblasts, dose response, counter-screen, cell-based, ATP luminescence, mouse fibroblasts (AID 2010);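 also: cells exposed to compound for about 90 hours before reading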", "type": "functional"}, "H4": {"tested_on": "H4", "assay": "Luminescence Cell-Based Dose Response HTS to Identify Activators of 5'UTR Stem-Loop Driven Prion Protein mRNA Translation in H4 Neuroglioblastoma Cells. [Related pubchem assays: 1829 (Project Summary), 1814 (Primary HTS)]", "type": "functional", "details": "Homo sapiens"}, "[13]": {"assay": "Luminescence Cell-Based Dose Confirmation HTS to Identify Activators of 5'UTR Stem-Loop Driven Alpha-Synuclein mRNA Translation in H4 Neuroglioblastoma Cells. [Related pubchem assays: 1829 (Project Summary), 1814 (Primary HTS)]", "type": "functional"}, "[14]": {"assay": "Luminescence Cell-Based Dose Response HTS to Identify Activators of Luciferase Translation or Activity in H4 […] Cells. [Related pubchem assays: 1829 (Project Summary), 1814 (Primary HTS)]", "type": "functional"}, "Protein RecA": {"target": "T1, Protein RecA (Mycobacterium tuberculosis, UniProt P9WHJ3)", "T1 sequence (P9WHJ3 whole entry)": "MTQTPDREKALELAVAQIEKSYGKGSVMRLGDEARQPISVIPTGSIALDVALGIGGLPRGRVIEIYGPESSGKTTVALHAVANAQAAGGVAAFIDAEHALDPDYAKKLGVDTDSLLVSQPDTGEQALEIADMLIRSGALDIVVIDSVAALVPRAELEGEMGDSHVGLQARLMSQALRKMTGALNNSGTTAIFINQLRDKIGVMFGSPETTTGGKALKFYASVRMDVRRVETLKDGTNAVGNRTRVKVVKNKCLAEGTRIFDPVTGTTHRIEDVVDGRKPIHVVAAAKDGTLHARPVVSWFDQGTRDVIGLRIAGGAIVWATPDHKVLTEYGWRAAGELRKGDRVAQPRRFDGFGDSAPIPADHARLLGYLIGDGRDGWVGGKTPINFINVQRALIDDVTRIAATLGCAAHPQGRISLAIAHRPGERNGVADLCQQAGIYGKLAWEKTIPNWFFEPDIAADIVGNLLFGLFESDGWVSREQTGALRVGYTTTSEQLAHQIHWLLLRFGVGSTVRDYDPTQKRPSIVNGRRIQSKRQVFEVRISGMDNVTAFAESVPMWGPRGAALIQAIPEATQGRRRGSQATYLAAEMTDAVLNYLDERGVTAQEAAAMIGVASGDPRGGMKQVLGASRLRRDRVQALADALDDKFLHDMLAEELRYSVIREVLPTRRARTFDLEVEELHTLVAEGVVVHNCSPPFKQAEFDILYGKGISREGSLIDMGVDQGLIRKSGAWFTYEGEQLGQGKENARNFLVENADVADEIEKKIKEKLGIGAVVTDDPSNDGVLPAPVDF", "assay": "Fluorescence Cell-Free Homogeneous Dose Retest to Identify Inhibitors of RecA-Intein Splicing Activity. [Related pubchem assays (depositor defined):AID2097, AID2223, AID489010, AID492950]", "type": "functional"}, "[15]": {"target": "T2, Replicative DNA helicase DnaB (Mycobacterium tuberculosis, UniProt P9WMR3)", "T2 sequence (P9WMR3 whole entry)": "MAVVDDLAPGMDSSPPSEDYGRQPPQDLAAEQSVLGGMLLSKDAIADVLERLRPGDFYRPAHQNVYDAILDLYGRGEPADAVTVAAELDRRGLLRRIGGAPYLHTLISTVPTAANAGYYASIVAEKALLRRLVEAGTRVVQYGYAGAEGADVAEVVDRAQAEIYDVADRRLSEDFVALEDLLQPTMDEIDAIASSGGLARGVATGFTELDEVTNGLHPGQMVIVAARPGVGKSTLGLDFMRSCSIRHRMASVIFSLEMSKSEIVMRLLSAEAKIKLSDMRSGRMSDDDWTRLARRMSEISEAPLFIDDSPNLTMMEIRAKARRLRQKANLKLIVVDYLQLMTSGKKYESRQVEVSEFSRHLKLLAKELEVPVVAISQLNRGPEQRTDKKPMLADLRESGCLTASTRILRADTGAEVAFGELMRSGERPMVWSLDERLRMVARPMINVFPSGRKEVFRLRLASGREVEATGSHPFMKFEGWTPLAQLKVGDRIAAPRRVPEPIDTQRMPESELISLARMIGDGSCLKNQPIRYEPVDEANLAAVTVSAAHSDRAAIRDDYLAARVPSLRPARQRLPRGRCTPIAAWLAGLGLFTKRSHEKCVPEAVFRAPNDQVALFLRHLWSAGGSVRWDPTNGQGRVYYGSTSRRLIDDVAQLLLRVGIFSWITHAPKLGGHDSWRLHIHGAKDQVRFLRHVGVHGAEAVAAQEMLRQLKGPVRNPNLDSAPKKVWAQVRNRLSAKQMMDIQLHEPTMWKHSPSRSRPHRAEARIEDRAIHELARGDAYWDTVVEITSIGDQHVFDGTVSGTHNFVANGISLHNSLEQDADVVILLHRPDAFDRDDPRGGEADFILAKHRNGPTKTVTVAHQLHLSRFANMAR", "assay": "DnaB intein splicing inhibitors, dose response, biochemical, cell-free fluorescence (AID 449749)", "type": "functional"}}, "note": "Calls of active or inactive are those of the source. Rule as the data show it, for most assays here: actives have a measured EC50 and inactives only a lower limit.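 For IC50 in this document: confirmatory concentration-response retest of ultra-high-throughput screening hits for modulation of myocardial damage; cell death induced by hydrogen peroxide oxidative stress; compound pretreatment for 60 min then peroxide exposure for 2 h; potency is for protecting the cells against peroxide damage rather than for killing them.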"}
{"smiles": "Cc1ccc(CNC(=O)CCc2nc(O)c3ccccc3n2)cc1", "values": [{"measurement": "IC50", "setting": "H9c2", "value": "12.5 µM (active)"}]}
{"smiles": "COc1ccc(/C=C2\\CN(Cc3ccccc3)C/C(=C\\c3ccc(OC)cc3)C2=O)cc1", "values": [{"measurement": "EC50", "setting": "[1]", "value": "5.52 µM (active)"}, {"measurement": "EC50", "setting": "[2]", "value": "6.02 µM (active)"}]}
{"smiles": "O=C(Nc1ccc(Cl)cc1)NN1CC(=O)N(c2cccc(C(F)(F)F)c2)CC1=O", "values": [{"measurement": "EC50", "setting": "cells [3]", "value": "> 350 µM (not active)"}, {"measurement": "EC50", "setting": "cells [4]", "value": "> 350 µM (not active)"}]}
{"smiles": "O=Nc1c(O)n(Cc2cccc(C(F)(F)F)c2)c2ccccc12", "values": [{"measurement": "EC50", "setting": "[5]", "value": "1.89 µM (active)"}, {"measurement": "EC50", "setting": "[6]", "value": "> 160 µM (inactive)"}]}
{"smiles": "CC1CC(C)CN(S(=O)(=O)c2ccc3c(c2)oc(=O)n3CC(=O)NCCCOC(C)C)C1", "note": "(stereo not given)", "values": [{"measurement": "EC50", "setting": "cells [3]", "value": "> 350 µM (not active)"}, {"measurement": "EC50", "setting": "cells [4]", "value": "> 350 µM (not active)"}]}
{"smiles": "O=C(N[C@@H](Cc1ccccc1)C(=O)OCc1ccccc1)c1[nH]cnc1C(=O)N1CCc2ccccc2C1", "values": [{"measurement": "CC50", "setting": "[7]", "value": "26.1 µM (active)"}]}
{"smiles": "COC(=O)CNC(=O)CSc1nnc2cc(C)c3ccccc3n12", "values": [{"measurement": "EC50", "setting": "cells [3]", "value": "> 350 µM (not active)"}, {"measurement": "EC50", "setting": "cells [4]", "value": "> 350 µM (not active)"}]}
{"smiles": "O=C1c2ccccc2C(=O)N1CCCCN(C(=O)c1cc2ccccc2oc1=O)c1ccc(F)cc1F", "values": [{"measurement": "EC50", "setting": "[8]", "value": "> 120 µM (not active)"}, {"measurement": "EC50", "setting": "[9]", "value": "> 120 µM (not active)"}, {"measurement": "EC50", "setting": "[10]", "value": "> 120 µM (not active)"}]}
{"smiles": "Nc1ccnn1-c1ccccc1", "values": [{"measurement": "EC50", "setting": "cells [3]", "value": "> 350 µM (not active)"}, {"measurement": "EC50", "setting": "cells [4]", "value": "> 350 µM (not active)"}]}
{"smiles": "Cc1cnc(NC(=O)CSc2nc(O)c3ccccc3n2)s1", "values": [{"measurement": "IC50", "setting": "H9c2", "value": "> 79 µM (inactive)"}]}
{"smiles": "Fc1ccc(-c2cc3nc(-c4ccccc4)cc(N4CCN(CCN5CCOCC5)CC4)n3n2)cc1", "values": [{"measurement": "EC50", "setting": "[1]", "value": "85 µM (active)"}, {"measurement": "EC50", "setting": "[11]", "value": "4.9 µM (active)"}, {"measurement": "EC50", "setting": "[12]", "value": "7.58 µM (active)"}, {"measurement": "EC50", "setting": "[2]", "value": "71.2 µM (active)"}]}
{"smiles": "O=C(O)c1ccccc1OCCOc1ccccc1C(=O)O", "values": [{"measurement": "EC50", "setting": "cells [3]", "value": "> 350 µM (not active)"}, {"measurement": "EC50", "setting": "cells [4]", "value": "> 350 µM (not active)"}]}
{"smiles": "COc1ccc2nc(O)c(CN(c3ccccc3OC)S(=O)(=O)c3ccccc3)cc2c1", "values": [{"measurement": "EC50", "setting": "H4", "value": "> 120 µM (not active)"}, {"measurement": "IC50", "setting": "H9c2", "value": "13.3 µM (active)"}, {"measurement": "EC50", "setting": "[13]", "value": "> 120 µM (not active)"}, {"measurement": "EC50", "setting": "[14]", "value": "14.3 µM (active)"}]}
{"smiles": "O=Cc1ccc(Sc2nnc(-c3ccccc3)o2)c([N+](=O)[O-])c1", "values": [{"measurement": "EC50", "setting": "[1]", "value": "18.1 µM (active)"}, {"measurement": "EC50", "setting": "Protein RecA", "value": "5.46 µM (active)"}, {"measurement": "EC50", "setting": "[2]", "value": "21.4 µM (active)"}, {"measurement": "AC50", "setting": "[15]", "value": "9.51 µM (active)"}]}
{"smiles": "COc1cc(-c2cc(C(=O)N3CCN(c4ccccn4)CC3)c3ccccc3n2)cc(OC)c1OC", "values": [{"measurement": "IC50", "setting": "H9c2", "value": "> 79 µM (inactive)"}]}
{"smiles": "COc1ccc(CN2C(=O)NC(=O)/C(=C\\NNC(=O)c3ccccc3)C2=O)cc1", "values": [{"measurement": "EC50", "setting": "[6]", "value": "56 µM (active)"}]}
{"smiles": "NC(=O)c1nsc(C(=O)N(c2ccccc2)C(C(=O)NCc2ccc(F)cc2)c2ccc(O)cc2)c1N", "note": "(stereo not given)", "values": [{"measurement": "IC50", "setting": "H9c2", "value": "> 79 µM (inactive)"}]}
